Two compounds from patent US11833160B2, “Ursodeoxycholic acid derivatives as HDAC inhibitors for the treatment of polycystic diseases” (UNIVERSIDAD DEL PAIS VASCO/EUSKAL HERRIKO UNIBERTSITATEA, priority 2017, dated 2023) can be followed below.

Data set [1] has as its system α-acetylated-tubulin in polycystic human cholangiocytes. Description: Immunoblot of α-acetylated-tubulin. In kind it is cell-based. To be noted: different doses. Here is the method: The expression of α-acetylated-tubulin (Ac-α-tubulin) and lysine 9-acetylated histone 3 (Ac-H3K9) in polycystic human cholangiocytes in culture was analyzed using Ac-α-tubulin-specific primary antibodies (1:2000, Sigma-Aldrich) and H3K9-specific primary antibodies (1:500, Cell Signaling Technology) and a peroxidase-conjugated secondary antibody (1:5000, Sigma-Aldrich). The expression of each protein was quantified using a chemiluminescence system (Amersham, GE Healthcare). The GAPDH protein was used as loading control.
A general note: In western blotting, separated proteins are transferred to a membrane and probed.

The target in data set [2] is T1, OCT1 (Homo sapiens, UniProt O15245).
T1 construct: expressed in transfected cells; host or cells: HepG2 cells
T1 sequence (O15245 1-554): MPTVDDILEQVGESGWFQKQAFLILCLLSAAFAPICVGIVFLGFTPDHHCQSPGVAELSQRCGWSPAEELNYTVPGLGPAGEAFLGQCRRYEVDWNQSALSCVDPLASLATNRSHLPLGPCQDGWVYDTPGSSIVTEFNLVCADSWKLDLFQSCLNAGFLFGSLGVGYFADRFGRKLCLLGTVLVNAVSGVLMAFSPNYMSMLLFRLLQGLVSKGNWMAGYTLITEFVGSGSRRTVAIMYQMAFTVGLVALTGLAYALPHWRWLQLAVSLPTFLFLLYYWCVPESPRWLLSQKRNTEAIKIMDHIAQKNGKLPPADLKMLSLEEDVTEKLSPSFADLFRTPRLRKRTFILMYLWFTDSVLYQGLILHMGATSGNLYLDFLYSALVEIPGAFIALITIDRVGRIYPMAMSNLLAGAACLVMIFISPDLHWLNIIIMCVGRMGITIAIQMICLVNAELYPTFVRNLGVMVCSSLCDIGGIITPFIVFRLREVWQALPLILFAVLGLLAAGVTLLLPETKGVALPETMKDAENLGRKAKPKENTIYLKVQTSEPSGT
Description: Uptake study in HepG2 cells overexpressing OCT1. In kind it is in vitro ADME. From the text: The bile acid and organic cation transporters expressed in hepatocytes and cholangiocytes were overexpressed in HepG2 cells (OCT1) and CHO cells (OCT3). The efficacy of the process was confirmed by means of measuring the abundance of mRNA (qPCR), protein (WB), and the correct insertion in the plasma membrane (immunofluorescence). The uptake studies included comparing the uptake efficiency of the compound with respect to dihydroethidium (DHE) in the case of OCT3, and sorafenib in the case of OCT1 (positive controls), as well as the sensitivity of the process to substrate inhibition induced by the joint administration of the compound and quinine. The cell content of all the compounds was determined by means of triple quadrupole HPLC-MS/MS after extraction thereof from the cell system used in each case.

Data set [3] concerns the target T2, OATP1B1 (Homo sapiens, UniProt Q9Y6L6).
T2 construct: expressed in transfected cells
T2 sequence (Q9Y6L6 1-691): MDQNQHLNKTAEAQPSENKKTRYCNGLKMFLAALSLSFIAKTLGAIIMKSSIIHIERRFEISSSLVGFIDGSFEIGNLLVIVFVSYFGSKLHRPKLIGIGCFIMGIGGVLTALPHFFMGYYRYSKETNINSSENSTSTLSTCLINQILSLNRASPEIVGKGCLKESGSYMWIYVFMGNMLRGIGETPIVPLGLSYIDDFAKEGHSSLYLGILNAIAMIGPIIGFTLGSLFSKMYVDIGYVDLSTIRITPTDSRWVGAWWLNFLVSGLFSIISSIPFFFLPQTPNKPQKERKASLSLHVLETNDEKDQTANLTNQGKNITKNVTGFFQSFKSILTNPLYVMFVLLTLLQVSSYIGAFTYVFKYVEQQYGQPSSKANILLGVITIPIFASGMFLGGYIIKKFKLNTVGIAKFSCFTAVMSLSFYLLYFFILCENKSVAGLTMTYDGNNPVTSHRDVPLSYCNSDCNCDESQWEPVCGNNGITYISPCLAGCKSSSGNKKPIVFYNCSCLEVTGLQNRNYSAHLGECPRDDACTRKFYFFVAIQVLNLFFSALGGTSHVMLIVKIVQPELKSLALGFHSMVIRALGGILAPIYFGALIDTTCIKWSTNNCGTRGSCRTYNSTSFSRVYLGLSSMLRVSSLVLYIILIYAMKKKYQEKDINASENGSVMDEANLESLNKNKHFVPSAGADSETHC
Description: Uptake study, transporter OATP1B1 (data not shown). The class given is in vitro ADME.

In the case of `C[C@H](CCC(=O)NCc1ccc(C(=O)NO)cc1)[C@H]1CC[C@H]2[C@@H]3[C@@H](O)C[C@@H]4C[C@H](O)CC[C@]4(C)[C@H]3CC[C@]12C` [Compound Ia], the “expression of α-acetylated-tubulin” value in data set [1] was “increases significantly and in a dose-dependent manner”. Further, in data set [2] (joint administration with quinine), the “effect of quinine (OCT1 inhibitor) on the OCT1 transport” value is on record as “inhibited by the presence of quinine”. Also, the “transport through OCT1” value in data set [2] (liver cells (HepG2 overexpressing OCT1), HPLC-MS/MS cell content) was “specifically transported through OCT1”. In addition, the “transport through OATP1B1” value in data set [3] is listed as “not through ASBT or OATP1B1”.
As usually defined, the melting point is the temperature of the solid-liquid transition. On to `C[C@H](CCC(=O)NCC(=O)NCc1ccc(C(=O)NO)cc1)[C@H]1CC[C@H]2[C@@H]3[C@@H](O)C[C@@H]4C[C@H](O)CC[C@]4(C)[C@H]3CC[C@]12C` [Ib, 4-((2-((R)-4 ((3R,5S,7S,8R,9S,10S,13R,14S,17R)-3,7-dihydroxy-10,13-dimethylhexadecahydro-1H-cyclopenta[a]phenanthren-17-yl)pentanamide)acetamido)methyl)-N-hydroxybenzamide], for which the melting point is 153 to 155 °C.
